Source: the supplement of paper PMC10307832

Tests used:
Assay in all cases: relative viability (nuclei count vs DMSO), 5 days (fraction); higher = more cells survive
[1] = test system: NCI-H727
Method in brief: (§1)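 Each reported value is a median over duplicate plates. It expresses relative viability: treated-well nuclei count divided by vehicle-well nuclei count. Lung cancer cell lines in 1536-well plates were dosed by pin tool a day after seeding, alone with one drug or with a fixed anchor-drug dose plus five library-drug doses (not always all listed) in √10 steps, and nuclei were counted after 5 days.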

[2] = test system: PC-3 [JPC-3]
Method in brief: as §1

[3] = test system: NCI-H1650
Method in brief: as §1

[4] = test system: NCI-H2087
Method in brief: as §1

[5] = test system: NCI-H1651
Method in brief: as §1

[6] = test system: NCI-H441
Method in brief: as §1

[7] = test system: NCI-H2023
Method in brief: as §1

[8] = test system: 201T
Method in brief: as §1

[9] = test system: NCI-H460
Method in brief: as §1

[10] = test system: NCI-H1915
Method in brief: as §1

[11] = test system: H3255
Method in brief: as §1

[12] = test system: CAL-12T
Method in brief: as §1

[13] = test system: LC-2-ad
Method in brief: as §1

[14] = test system: BEN
Method in brief: as §1

[15] = test system: LCLC-97TM1
Method in brief: as §1

[16] = test system: NCI-H1944
Method in brief: as §1

[17] = test system: NCI-H520
Method in brief: as §1

[18] = test system: A-427
Method in brief: as §1

[19] = test system: NCI-H596
Method in brief: as §1

O=c1cc(-c2cccc3c2Sc2ccccc2S3)oc(N2CCOCC2)c1 + CC1(C)CCC(c2ccc(Cl)cc2)=C(CN2CCN(c3ccc(C(=O)NS(=O)(=O)c4ccc(N[C@H](CCN5CCOCC5)CSc5ccccc5)c(S(=O)(=O)C(F)(F)F)c4)cc3)CC2)C1 [Navitoclax] (partner 0.5 µM)
relative viability ([1]; first compound 0.253 µM): 0.356
relative viability ([1]; first compound 2.53 µM): 0.369
relative viability ([1]; first compound 8 µM): 0.494
relative viability ([2]; first compound 0.08 µM): 0.836
relative viability ([2]; first compound 0.253 µM): 0.779
relative viability ([2]; first compound 0.8 µM): 0.897
relative viability ([2]; first compound 2.53 µM): 0.767
relative viability ([2]; first compound 8 µM): 0.992
relative viability ([3]; first compound 0.08 µM): 1.05
relative viability ([3]; first compound 0.253 µM): 1.21
relative viability ([3]; first compound 0.8 µM): 1.12
relative viability ([3]; first compound 2.53 µM): 1.17
relative viability ([3]; first compound 8 µM): 1.38
relative viability ([4]; first compound 0.08 µM): 0.995
relative viability ([4]; first compound 0.253 µM): 1.3
relative viability ([4]; first compound 0.8 µM): 1.07
relative viability ([4]; first compound 2.53 µM): 0.955
relative viability ([4]; first compound 8 µM): 1.21
relative viability ([5]; first compound 0.08 µM): 1.04
relative viability ([5]; first compound 0.253 µM): 1.42
relative viability ([5]; first compound 0.8 µM): 0.852
relative viability ([5]; first compound 2.53 µM): 0.994
relative viability ([5]; first compound 8 µM): 1.14
relative viability ([6]; first compound 0.08 µM): 1.14
relative viability ([6]; first compound 0.253 µM): 0.909
relative viability ([6]; first compound 0.8 µM): 0.523
relative viability ([6]; first compound 2.53 µM): 0.776
relative viability ([6]; first compound 8 µM): 0.762
relative viability ([7]; first compound 0.08 µM): 1.04
relative viability ([7]; first compound 0.253 µM): 1.12
relative viability ([7]; first compound 0.8 µM): 1.04
relative viability ([7]; first compound 2.53 µM): 0.943
relative viability ([7]; first compound 8 µM): 1.02
relative viability ([8]; first compound 0.08 µM): 1.15
relative viability ([8]; first compound 0.253 µM): 1.2
relative viability ([8]; first compound 0.8 µM): 1.23
relative viability ([8]; first compound 2.53 µM): 1.2
relative viability ([8]; first compound 8 µM): 1.15
relative viability ([9]; first compound 0.08 µM): 1.24
relative viability ([9]; first compound 0.8 µM): 1.42
relative viability ([9]; first compound 2.53 µM): 1.23
relative viability ([10]; first compound 0.08 µM): 0.776
relative viability ([10]; first compound 0.253 µM): 0.847
relative viability ([10]; first compound 0.8 µM): 0.795
relative viability ([10]; first compound 2.53 µM): 0.787
relative viability ([10]; first compound 8 µM): 0.872
relative viability ([11]; first compound 0.08 µM): 0.55
relative viability ([11]; first compound 0.253 µM): 0.468
relative viability ([11]; first compound 0.8 µM): 0.474
relative viability ([11]; first compound 2.53 µM): 0.61
relative viability ([11]; first compound 8 µM): 0.698
relative viability ([12]; first compound 0.08 µM): 1.16
relative viability ([12]; first compound 0.253 µM): 1.26
relative viability ([12]; first compound 0.8 µM): 1.48
relative viability ([12]; first compound 2.53 µM): 1.2
relative viability ([12]; first compound 8 µM): 1.31
relative viability ([13]; first compound 0.08 µM): 0.363
relative viability ([13]; first compound 0.253 µM): 0.666
relative viability ([13]; first compound 0.8 µM): 0.375
relative viability ([13]; first compound 2.53 µM): 0.421
relative viability ([13]; first compound 8 µM): 0.403
relative viability ([14]; first compound 0.08 µM): 0.0636
relative viability ([14]; first compound 0.253 µM): 0.0609
relative viability ([14]; first compound 0.8 µM): 0.0602
relative viability ([14]; first compound 2.53 µM): 0.0598
relative viability ([14]; first compound 8 µM): 0.0681
relative viability ([15]; first compound 0.08 µM): 0.425
relative viability ([15]; first compound 0.253 µM): 0.597
relative viability ([15]; first compound 0.8 µM): 0.374
relative viability ([15]; first compound 2.53 µM): 0.329
relative viability ([15]; first compound 8 µM): 0.372
relative viability ([16]; first compound 0.08 µM): 1
relative viability ([16]; first compound 0.253 µM): 1.11
relative viability ([16]; first compound 0.8 µM): 1.06
relative viability ([16]; first compound 8 µM): 1.16
relative viability ([17]; first compound 0.08 µM): 0.992
relative viability ([17]; first compound 0.253 µM): 1.1
relative viability ([17]; first compound 0.8 µM): 1.04
relative viability ([17]; first compound 2.53 µM): 0.993
relative viability ([17]; first compound 8 µM): 1.2
relative viability ([18]; first compound 0.08 µM): 0.962
relative viability ([18]; first compound 0.253 µM): 0.909
relative viability ([18]; first compound 0.8 µM): 1.07
relative viability ([18]; first compound 2.53 µM): 0.906
relative viability ([18]; first compound 8 µM): 0.934
relative viability ([19]; first compound 0.08 µM): 0.843
relative viability ([19]; first compound 0.253 µM): 1.3
relative viability ([19]; first compound 0.8 µM): 1.09
relative viability ([19]; first compound 2.53 µM): 1.09
relative viability ([19]; first compound 8 µM): 1.14
